Assay results reported in patent publication US9133183B2, “Imidazolidinones and analogs exhibiting anti-cancer and anti-proliferative activities” (Deciphera Pharmaceuticals, LLC, priority 2013, dated 2015).

Target: unphosphorylated PDGFRβ kinase (uPDGFRβ, Seq. ID No. 3) (Homo sapiens (Human), UniProt P09619)
Assay: Unphosphorylated PDGFRβ kinase assay (coupled pyruvate kinase/lactate dehydrogenase)
Assay type: biochemical
Conditions: enzymatic assay, ATP 500 μM
Method in brief: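 Construct residues 557-1106, unphosphorylated, 15.7 nM, with poly E4Y 2.5 mg/mL and 500 μM ATP, Tris pH 7.5, 1% DMSO, 30 °C. ADP coupled to NADH oxidation via PK/LDH, A340 followed 4 h; rate from 1.5-2.5 h versus no-compound control, IC50 from percent-inhibition series.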

unphosphorylated PDGFRβ kinase (uPDGFRβ, Seq. ID No. 3), sequence (P09619 557-1106): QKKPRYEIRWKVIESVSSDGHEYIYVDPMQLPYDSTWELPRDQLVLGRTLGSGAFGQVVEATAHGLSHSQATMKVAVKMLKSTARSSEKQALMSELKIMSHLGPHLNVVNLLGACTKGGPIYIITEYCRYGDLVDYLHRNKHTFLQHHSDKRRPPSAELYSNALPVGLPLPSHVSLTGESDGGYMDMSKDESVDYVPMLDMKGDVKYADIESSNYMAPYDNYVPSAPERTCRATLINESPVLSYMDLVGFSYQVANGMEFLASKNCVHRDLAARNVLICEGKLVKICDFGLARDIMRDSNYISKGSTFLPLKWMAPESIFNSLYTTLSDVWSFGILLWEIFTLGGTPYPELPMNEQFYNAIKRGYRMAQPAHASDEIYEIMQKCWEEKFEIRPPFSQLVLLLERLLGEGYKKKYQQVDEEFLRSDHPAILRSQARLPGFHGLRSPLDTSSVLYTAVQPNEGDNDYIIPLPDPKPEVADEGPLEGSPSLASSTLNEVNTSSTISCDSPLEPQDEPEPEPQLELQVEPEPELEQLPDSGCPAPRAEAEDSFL

IC50 | Structure (SMILES)
> 1000 nM | Cn1cc(-c2cc(Oc3ccc(NC(=O)N4CCN(C5CCOC5)C4=O)nc3)ccn2)cn1 (stereo in doubt) [Example 12, (S)—N-(5-((2-(1-methyl-1H-pyrazol-4-yl)pyridin-4-yl)oxy)pyridin-2-yl)-2-oxo-3-(tetrahydrofuran-3-yl)imidazolidine-1-carboxamide]
> 1000 nM | Cc1nc(NC(=O)N2CCN(C3CCOCC3)C2=O)ccc1Oc1ccnc(-c2cnn(C)c2)c1 [Example 3, N-(6-methyl-5-((2-(1-methyl-1H-pyrazol-4-yl)pyridin-4-yl)oxy)pyridin-2-yl)-2-oxo-3-(tetrahydro-2H-pyran-4-yl)imidazolidine-1-carboxamide]
100 to 1000 nM | CCn1cc(-c2cc(Oc3ccc(NC(=O)N4CCN(C5CCOCC5)C4=O)nc3)ccn2)cn1 [Example 4, N-(5-((2-(1-ethyl-1H-pyrazol-4-yl)pyridin-4-yl)oxy)pyridin-2-yl)-2-oxo-3-(tetrahydro-2H-pyran-4-yl)imidazolidine-1-carboxamide]
> 1000 nM | Cc1cc(-c2cc(Oc3ccc(NC(=O)N4CCN(C5CCOCC5)C4=O)nc3)ccn2)on1 [Example 7, N-(5-((2-(3-methylisoxazol-5-yl)pyridin-4-yl)oxy)pyridin-2-yl)-2-oxo-3-(tetrahydro-2H-pyran-4-yl)imidazolidine-1-carboxamide]
> 1000 nM | COCCN1CCN(C(=O)Nc2ccc(Oc3ccnc(-c4cnn(C)c4)c3)cn2)C1=O [Example 10, 3-(2-methoxyethyl)-N-(5-((2-(1-methyl-11H-pyrazol-4-yl)pyridin-4-yl)oxy)pyridin-2-yl)-2-oxoimidazolidine-1-carboxamide]
> 1000 nM | COCCCN1CCN(C(=O)Nc2ccc(Oc3ccnc(-c4cnn(C)c4)c3)cn2)C1=O [Example 11, 3-(3-methoxypropyl)-N-(5-((2-(1-methyl-1H-pyrazol-4-yl)pyridin-4-yl)oxy)pyridin-2-yl)-2-oxoimidazolidine-1-carboxamide]
100 to 1000 nM | COC[C@H](C)N1CCN(C(=O)Nc2ccc(Oc3ccnc(-c4cnn(C)c4)c3)cn2)C1=O [Example 16, (S)-3-(1-methoxypropan-2-yl)-N-(5-((2-(1-methyl-11H-pyrazol-4-yl)pyridin-4-yl)oxy)pyridin-2-yl)-2-oxoimidazolidine-1-carboxamide]
> 1000 nM | COCCCN1CCN(C(=O)Nc2ccc(Oc3ccnc(-c4cnn(C)c4)c3)c(C)n2)C1=O [Example 19, 3-(3-methoxypropyl)-N-(6-methyl-5-((2-(1-methyl-1H-pyrazol-4-yl)pyridin-4-yl)oxy)pyridin-2-yl)-2-oxoimidazolidine-1-carboxamide]
> 1000 nM | Cc1nc(NC(=O)N2CCN(C3COC3)C2=O)ccc1Oc1ccnc(-c2cnn(C)c2)c1 [Example 20, N-(6-methyl-5-((2-(1-methyl-1H-pyrazol-4-yl)pyridin-4-yl)oxy)pyridin-2-yl)-3-(oxetan-3-yl)-2-oxoimidazolidine-1-carboxamide]
> 1000 nM | Cn1cc(-c2cc(Oc3ccc(NC(=O)N4CCN(CCOC(F)(F)F)C4=O)nc3)ccn2)cn1 [Example 21, N-(5-((2-(1-methyl-1H-pyrazol-4-yl)pyridin-4-yl)oxy)pyridin-2-yl)-2-oxo-3-(2-(trifluoromethoxy)ethyl)imidazolidine-1-carboxamide]
> 1000 nM | Cc1nc(NC(=O)N2CCN(C3CCCCC3)C2=O)ccc1Oc1ccnc(-c2cnn(C)c2)c1 [Example 22, 3-cyclohexyl-N-(6-methyl-5-((2-(1-methyl-1H-pyrazol-4-yl)pyridin-4-yl)oxy)pyridin-2-yl)-2-oxoimidazolidine-1-carboxamide]
10 to 100 nM | Cn1cc(-c2cc(Oc3ccc(NC(=O)N4CCN(C5CCC(F)(F)CC5)C4=O)nc3)ccn2)cn1 [Example 25, 3-(4,4-difluorocyclohexyl)-N-(5-((2-(1-methyl-1H-pyrazol-4-yl)pyridin-4-yl)oxy)pyridin-2-yl)-2-oxoimidazolidine-1-carboxamide]
> 1000 nM | Cc1nc(NC(=O)N2CCN(C3CCC(F)(F)CC3)C2=O)ccc1Oc1ccnc(-c2cnn(C)c2)c1 [Example 26, 3-(4,4-difluorocyclohexyl)-N-(6-methyl-5-((2-(1-methyl-1H-pyrazol-4-yl)pyridin-4-yl)oxy)pyridin-2-yl)-2-oxoimidazolidine-1-carboxamide]
100 to 1000 nM | Cc1nc(NC(=O)N2CCN(C(C)(C)C)C2=O)ccc1Oc1ccnc(-c2cnn(C)c2)c1 [Example 33, 3-(tert-butyl)-N-(6-methyl-5-((2-(1-methyl-1H-pyrazol-4-yl)pyridin-4-yl)oxy)pyridin-2-yl)-2-oxoimidazolidine-1-carboxamide]
10 to 100 nM | Cn1cc(-c2cc(Oc3ccc(NC(=O)N4CCN(C(C)(C)C)C4=O)nc3)ccn2)cn1 [Example 34, 3-(tert-butyl)-N-(5-((2-(1-methyl-1H-pyrazol-4-yl)pyridin-4-yl)oxy)pyridin-2-yl)-2-oxoimidazolidine-1-carboxamide]
100 to 1000 nM | Cc1nc(NC(=O)N2CCN(C(C)C)C2=O)ccc1Oc1ccnc(-c2cnn(C)c2)c1 [Example 35, 3-isopropyl-N-(6-methyl-5-((2-(1-methyl-1H-pyrazol-4-yl)pyridin-4-yl)oxy)pyridin-2-yl)-2-oxoimidazolidine-1-carboxamide]

IC50 | Structure (SMILES)
100 to 1000 nM | CC(C)N1CCN(C(=O)Nc2ccc(Oc3ccnc(-c4cnn(C)c4)c3)cn2)C1=O [Example 36, 3-isopropyl-N-(5-((2-(1-methyl-1H-pyrazol-4-yl)pyridin-4-yl)oxy)pyridin-2-yl)-2-oxoimidazolidine-1-carboxamide]
> 1000 nM | [2H]C([2H])([2H])n1cc(-c2cc(Oc3ccc(NC(=O)N4CCN(CCOC)C4=O)nc3C)ccn2)cn1 [Example 39, 3-(2-methoxyethyl)-N-(6-methyl-5-((2-(1-(trideuteromethyl)-1H-pyrazol-4-yl)pyridin-4-yl)oxy)pyridin-2-yl)-2-oxoimidazolidine-1-carboxamide]
> 1000 nM | Cc1nc(NC(=O)N2CCN(CC(F)(F)F)C2=O)ccc1Oc1ccnc(-c2cnn(C)c2)c1 [Example 43, N-(6-methyl-5-((2-(1-methyl-1H-pyrazol-4-yl)pyridin-4-yl)oxy)pyridin-2-yl)-2-oxo-3-(2,2,2-trifluoroethyl)imidazolidine-1-carboxamide]
> 1000 nM | CCc1nc(NC(=O)N2CCN(C3CCOCC3)C2=O)ccc1Oc1ccnc(-c2cnn(C)c2)c1 [Example 49, N-(6-ethyl-5-((2-(1-methyl-1H-pyrazol-4-yl)pyridin-4-yl)oxy)pyridin-2-yl)-2-oxo-3-(tetrahydro-2H-pyran-4-yl)imidazolidine-1-carboxamide]
100 to 1000 nM | Cc1ccc(-c2cc(Oc3ccc(NC(=O)N4CCN(C5CCOCC5)C4=O)nc3)ccn2)cn1 [Example 52, N-(5-((6′-methyl-[2,3′-bipyridin]-4-yl)oxy)pyridin-2-yl)-2-oxo-3-(tetrahydro-2H-pyran-4-yl)imidazolidine-1-carboxamide]
100 to 1000 nM | Cc1ccc(-c2cc(Oc3ccc(NC(=O)N4CCN(C5CCOCC5)C4=O)nc3C)ccn2)cn1 [Example 54, N-(6-methyl-5-((6′-methyl-[2,3′-bipyridin]-4-yl)oxy)pyridin-2-yl)-2-oxo-3-(tetrahydro-2H-pyran-4-yl)imidazolidine-1-carboxamide]
> 1000 nM | CCc1nc(NC(=O)N2CCN(CC(F)(F)F)C2=O)ccc1Oc1ccnc(-c2cnn(C)c2)c1 [Example 56, N-(6-ethyl-5-((2-(1-methyl-1H-pyrazol-4-yl)pyridin-4-yl)oxy)pyridin-2-yl)-2-oxo-3-(2,2,2-trifluoroethyl)imidazolidine-1-carboxamide]
> 1000 nM | CCc1nc(NC(=O)N2CCN(C3CCCC3)C2=O)ccc1Oc1ccnc(-c2cnn(C)c2)c1 [Example 57, 3-cyclopentyl-N-(6-ethyl-5-((2-(1-methyl-1H-pyrazol-4-yl)pyridin-4-yl)oxy)pyridin-2-yl)-2-oxoimidazolidine-1-carboxamide]
> 1000 nM | CCc1nc(NC(=O)N2CCN(C3CC3)C2=O)ccc1Oc1ccnc(-c2cnn(C)c2)c1 [Example 58, 3-cyclopropyl-N-(6-ethyl-5-((2-(1-methyl-1H-pyrazol-4-yl)pyridin-4-yl)oxy)pyridin-2-yl)-2-oxoimidazolidine-1-carboxamide]
> 1000 nM | CCN1CCN(C(=O)Nc2ccc(Oc3ccnc(-c4ccc(C5CCN(C)CC5)cc4)c3)c(C)n2)C1=O [Example 61, 3-ethyl-N-(6-methyl-5-((2-(4-(1-methylpiperidin-4-yl)phenyl)pyridin-4-yl)oxy)pyridin-2-yl)-2-oxoimidazolidine-1-carboxamide]
> 1000 nM | Cc1cc(NC(=O)N2CCN(C)C2=O)ncc1Oc1ccnc(-c2cnn(C)c2)c1 [Example 85, 3-methyl-N-(4-methyl-5-((2-(1-methyl-1H-pyrazol-4-yl)pyridin-4-yl)oxy)pyridin-2-yl)-2-oxoimidazolidine-1-carboxamide]
> 1000 nM | CCN1CCN(C(=O)Nc2cc(C)c(Oc3ccnc(-n4cnc(C)c4)c3)cn2)C1=O [Example 88, 3-ethyl-N-(4-methyl-5-((2-(4-methyl-1H-imidazol-1-yl)pyridin-4-yl)oxy)pyridin-2-yl)-2-oxoimidazolidine-1-carboxamide]
> 1000 nM | CCN1CCN(C(=O)Nc2ccc(Oc3ccnc(-c4cnc(C)o4)c3)cn2)C1=O [Example 117, 3-ethyl-N-(5-((2-(2-methyloxazol-5-yl)pyridin-4-yl)oxy)pyridin-2-yl)-2-oxoimidazolidine-1-carboxamide]
100 to 1000 nM | CC(=O)Nc1cc(Oc2ccc(NC(=O)N3CCN(C4CCOCC4)C3=O)nc2)ccn1 [Example 119, N-(5-((2-acetamidopyridin-4-yl)oxy)pyridin-2-yl)-2-oxo-3-(tetrahydro-2H-pyran-4-yl)imidazolidine-1-carboxamide]
10 to 100 nM | CN(C)C(=O)Nc1cc(Oc2ccc(NC(=O)N3CCN(C4CCOCC4)C3=O)nc2)ccn1 [Example 120, N-(5-((2-(3,3-dimethylureido)pyridin-4-yl)oxy)pyridin-2-yl)-2-oxo-3-(tetrahydro-2H-pyran-4-yl)imidazolidine-1-carboxamide]
